Measurements taken from paper PMC5708362, “A systematic analysis of atomic protein–ligand interactions in the PDB” (MedChemComm, 2017).

Assays:
human factor Xa = assay: factor Xa inhibition, ammonium methylation series (cation–π); format: biochemical; conditions: trimethylated ammonium 17 vs tert-butyl analog 15
thrombin = test system: thrombin; design: method as in PMID 20148533; conditions: thrombin inhibitors; cited from earlier work
human sEH = test system: human sEH; design: method as in PMID 19746975; conditions: human sEH inhibitors; cited from earlier work
human EGFR [1] = assay: EGFR inhibition (salt bridge pair); format: biochemical; conditions: 9 (carbon in place of terminal N,N-dimethylamino nitrogen) vs 10
human EGFR [2] = test system: human EGFR; design: method as in PMID 23611691; conditions: human EGFR inhibitors; cited from earlier work

SMILES | IC50 (human sEH) | IC50 (human EGFR [2]) | further results
C[N+](C)(C)CCCN1C(=O)[C@@H]2[C@H](C1=O)[C@H](c1cc(-c3ccc(Cl)s3)on1)N1CCC[C@@H]21 (racemic) [(±)-17] |  |  | fold increase in potency (human factor Xa): 60 fold
O=C(NCc1cccc(Cl)c1)[C@@H]1CCCN1C(=O)CCc1ccccc1 [compound 3] |  |  | IC50 (thrombin): 94300 nM
O=C(NCCCc1ccccc1)c1cccnc1 [compound 5] | 700 nM |  | 
CC(C)CCCC(=O)Nc1cccc(-c2c(-c3ccccc3)oc3ncnc(N[C@H](CO)c4ccccc4)c23)c1 [compound 9] |  | > 25000 nM | potency reduced by fold (human EGFR [1]): more than 800 fold
CN(C)CCCC(=O)Nc1cccc(-c2c(-c3ccccc3)oc3ncnc(N[C@H](CO)c4ccccc4)c23)c1 [compound 10] |  | 29 nM | 
